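Method: 48-hour compound exposure of cells in 96-well plates, five concentrations, linear interpolation of endpoints. At the GI50, growth is halved. TGI: concentration producing complete growth inhibition.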
Columns and labels:
Test in all cases: inhibition of tumour cell growth, NCI panel, 48 h
UO-31 renal = tested on: UO-31 renal
NCI/ADR-RES ovarian = tested on: NCI/ADR-RES ovarian
ACHN renal = tested on: ACHN renal
T-47D breast = tested on: T-47D breast
A498 renal = tested on: A498 renal
MDA-MB-231 breast = tested on: MDA-MB-231 breast
OVCAR-4 ovarian = tested on: OVCAR-4 ovarian
COLO 205 colon = tested on: COLO 205 colon
NCI-H23 lung = tested on: NCI-H23 lung
MCF7 breast = tested on: MCF7 breast
SK-OV-3 ovarian = tested on: SK-OV-3 ovarian
MALME-3M melanoma = tested on: MALME-3M melanoma
SNB-75 CNS = tested on: SNB-75 CNS
SF-268 CNS = tested on: SF-268 CNS
M14 melanoma = tested on: M14 melanoma
SNB-19 CNS = tested on: SNB-19 CNS

Row | Structure (SMILES) | TGI (UO-31 renal) [µM] | GI50 (NCI/ADR-RES ovarian) [µM] | TGI (NCI/ADR-RES ovarian) [µM] | TGI (ACHN renal) [µM] | TGI (T-47D breast) [µM] | TGI (A498 renal) [µM] | TGI (MDA-MB-231 breast) [µM] | TGI (OVCAR-4 ovarian) [µM] | TGI (COLO 205 colon) [µM] | TGI (NCI-H23 lung) [µM] | TGI (MCF7 breast) [µM] | TGI (SK-OV-3 ovarian) [µM] | TGI (MALME-3M melanoma) [µM] | TGI (SNB-75 CNS) [µM] | TGI (SF-268 CNS) [µM] | TGI (M14 melanoma) [µM] | TGI (SNB-19 CNS) [µM] | GI50 (A498 renal) [µM] | GI50 (SK-OV-3 ovarian) [µM]
1 | CCOC(=O)CCC(NC(=O)C(N)Cc1ccc(N(CCCl)CCCl)cc1)C(=O)OCC (stereo unspecified) | 2.92 | 3.52 | 19 | 0.692 | 3.84 | > 100 | 3.94 | 1.38 | 1.85 | 1.68 | 9.5 | 5.3 | 0.747 | 2.79 | 4 | 1.39 | 15.5 | – | –
2 | CCOC(=O)c1cn2c(n1)sc1cc(F)ccc12 | > 100 | – | > 100 | > 100 | > 100 | > 100 | > 100 | > 100 | > 100 | > 100 | > 100 | > 100 | > 100 | > 100 | > 100 | > 100 | > 100 | – | –
3 | CC(N)/C(N)=N/O (stereo unspecified) | > 100 | – | > 100 | > 100 | > 100 | > 100 | > 100 | > 100 | > 100 | > 100 | > 100 | > 100 | > 100 | > 100 | > 100 | > 100 | > 100 | – | –
4 | CC(=O)CC1CCC(=O)/C=C/C(=O)OC(CC(C)=O)CCC(=O)/C=C/C(=O)O1 (stereo unspecified) | 26.9 | – | 53.2 | 11.2 | 6.79 | 33.7 | 15 | 25.4 | 3.4 | 36.4 | 27.6 | 36.1 | 6.72 | 28.8 | 74 | 10.6 | 43.4 | – | –
5 | O=C1C(Br)=C(Br)C(=O)c2ccc(=O)ccc21 | 34.9 | – | 53.3 | 33.8 | 48.5 | > 100 | 35.9 | 32.7 | 26.4 | 43.1 | 37.4 | > 100 | 37.4 | > 100 | > 77 | 32.7 | > 100 | – | –
6 | O=c1c(F)cn(Cc2c(Cl)cccc2Cl)c(=O)n1Cc1c(Cl)cccc1Cl | > 31.6 | – | > 31.6 | > 31.6 | > 31.6 | > 31.6 | > 31.6 | > 31.6 | > 31.6 | > 31.6 | > 31.6 | > 31.6 | > 31.6 | > 31.6 | > 31.6 | > 31.6 | > 100 | – | –
7 | O=C(O)Cc1ccc([N+](=O)[O-])cc1[N+](=O)[O-] | > 100 | – | > 100 | > 100 | > 100 | > 100 | > 100 | > 100 | > 100 | > 100 | > 100 | > 100 | > 100 | > 100 | > 100 | > 100 | > 100 | – | –
8 | CC(C)(CN1CCCCC1)C(/C=C/c1ccc(Cl)cc1)=N\NC(=O)N/N=C(/C=C/c1ccc(Cl)cc1)C(C)(C)CN1CCCCC1 | 9.03 | – | 29.4 | 15 | 13.6 | 20.4 | 7.21 | 15 | 11.7 | 10.3 | > 35.3 | 25.4 | 22.9 | 12.7 | 21.6 | 11.1 | 16.3 | – | –
9 | Cc1ccc(S(=O)(=O)N2C3C=CC(C3)[C@@H]2C(Cl)(Cl)Cl)cc1 (stereo partly specified) | 59.3 | – | 44.6 | 53.1 | > 100 | 47.5 | 33.3 | > 77.1 | 38.2 | > 100 | > 100 | > 100 | 56.1 | 51.2 | 46.9 | 39.1 | > 87.6 | 11.8 | 39.2
10 | COc1ccc2oc3c(C)cc4c(OC)nnc(OC)c4c3c2c1 | > 100 | – | > 100 | > 100 | > 100 | > 100 | > 100 | > 100 | > 100 | > 100 | > 100 | > 100 | > 100 | > 100 | > 100 | > 100 | > 100 | – | –
11 | O=C1c2cccc3cc([N+](=O)[O-])cc(c23)C(=O)N1Nc1ccc([N+](=O)[O-])cc1[N+](=O)[O-] | 33.1 | – | > 31.6 | 7.06 | > 31.6 | 41.1 | 42.9 | > 46.4 | 18.3 | 35.7 | > 31.6 | > 31.6 | > 31.6 | > 31.6 | > 31.6 | > 74.9 | 38.9 | – | –
12 | O=c1[nH]c(=O)n(C2COC(CO)C2O)cc1F (stereo unspecified) | > 100 | – | > 100 | > 100 | > 100 | > 100 | > 100 | > 100 | > 100 | > 100 | > 100 | > 100 | > 100 | > 100 | > 100 | > 100 | > 100 | – | –
13 | COc1ccc(C(C)NNC(=O)c2ccncc2)cc1OC (stereo unspecified) | > 100 | – | > 100 | > 100 | > 100 | > 100 | > 100 | > 100 | > 100 | > 100 | > 100 | > 100 | > 100 | > 100 | > 100 | > 100 | > 100 | – | –
14 | N#C/C(N)=C(\C#N)NC=NCCO | > 100 | – | > 100 | > 100 | > 100 | > 100 | > 100 | > 100 | > 100 | > 100 | > 100 | > 100 | > 100 | > 100 | > 100 | > 100 | > 100 | – | –
15 | O=C1NC2(CCN(CCc3ccccc3)CC2)Oc2ccccc21 | > 100 | – | > 100 | > 100 | > 100 | > 100 | > 100 | > 100 | > 100 | > 100 | > 100 | > 100 | > 100 | > 100 | > 100 | 49.9 | > 100 | – | –
16 | C=CCNC(=S)N/C=C(\C#N)C(N)=O | > 100 | – | > 100 | > 100 | > 100 | > 100 | > 100 | > 100 | > 100 | > 100 | > 100 | > 100 | > 100 | > 100 | > 100 | > 100 | > 100 | – | –
17 | N=c1oc2ccccc2cc1C(=O)NC12CC3CC(CC(C3)C1)C2 | 0.471 | – | > 100 | 31.4 | 22.7 | > 82.1 | 47.7 | > 86.8 | 32.7 | > 91.6 | 18.3 | 53.5 | 98.2 | 71.3 | > 100 | > 100 | 80.5 | – | –
18 | O=C(O)C1C2c3ccccc3C(c3ccccc32)C1C(=O)NCC1CC1 (stereo unspecified) | > 100 | – | > 100 | > 100 | > 100 | > 100 | > 100 | > 100 | > 100 | > 100 | > 100 | > 100 | > 100 | > 100 | > 100 | > 100 | > 100 | – | –
19 | CSC(=O)c1sc(SC)[n+](-c2ccccc2)c1O | 31.4 | – | > 100 | > 100 | 29.5 | > 100 | 39 | 24.9 | > 100 | 39.7 | 52.8 | > 100 | 56.6 | 27.2 | 31.2 | 29.2 | 35.7 | – | –
20 | O=C1SC(SCc2ccccc2)=NC12CC2c1ccccc1 (stereo unspecified) | 41.2 | – | 63 | 38.2 | > 100 | 65.1 | 43.5 | 51.7 | 61.3 | 42 | 40.1 | > 100 | 34.8 | 71.6 | 70.1 | 37.8 | 71.1 | – | –
21 | C[C@]12[C@@H]3CC[C@H]1[C@@H](O)C(=O)N2CC3 | > 100 | – | > 100 | > 100 | > 100 | > 100 | > 100 | > 100 | > 100 | > 100 | > 100 | > 100 | > 100 | > 100 | > 100 | > 100 | > 100 | – | –
22 | COc1ccc(C2c3cc4c(cc3OC3(OC)COC(=O)C23)OCO4)c(OC)c1 (stereo unspecified) | > 100 | – | 34.5 | > 100 | > 100 | > 92.9 | 99.5 | > 100 | 51.7 | > 100 | 90.4 | > 86 | > 100 | 45.5 | > 100 | 25.8 | > 100 | – | –
23 | C[N+]12C=CC=C1C(N1CCCC1)c1scc(-c3ccc(Br)cc3)c12 (stereo unspecified) | > 100 | – | > 100 | > 100 | 61.8 | > 100 | > 93.8 | > 100 | 39.8 | 32.4 | > 90.1 | > 100 | 25.4 | > 22.3 | 37 | > 66.4 | 39.2 | – | –

Source: PubChem BioAssay (NCI)
